Data reported in patent US20120214862A1, “MODULATION OF FACTOR 7 EXPRESSION” (ISIS Pharmaceuticals, Inc., priority 2009, published 2012).
In the oligonucleotide strings, read from the 5' end, every base follows the letter of its sugar. An asterisk marks phosphorothioate; unmarked linkages are phosphodiester. Other units and linkages are bracketed, terminal groups are in braces. A string of capitals states the bases alone. e = 2'-O-(2-methoxyethyl) (MOE); [5mC] = 5-methylcytosine; d = 2'-deoxy (DNA)

Test system: human Factor 7 mRNA
Test: Inhibition of human Factor 7 mRNA by 2-10-2 MOE shortmers in HepB3 cells, electroporation, 1,000 nM
Type: cell-based
Settings: electroporation, 1,000 nM oligonucleotide, approximately 24 hours, relative to untreated control cells
Procedure, shortened: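 14-mer 2-10-2 2′-MOE gapmers, full phosphorothioate, 5-methylcytidines, electroporated at 1,000 nM into HepB3 cells (20,000/well). After ~24 h, mRNA quantified by real-time RT-PCR, normalized to RIBOGREEN total RNA; percent inhibition relative to untreated cells.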

Substance	% inhibition of human Factor 7 mRNA [%]
435697 (antisense eA*eG*dT*dA*dG*d[5mC]*d[5mC]*dG*dG*d[5mC]*dA*d[5mC]*eA*eG) [compound 435697]	53
435662 (antisense eT*eG*dG*dA*dT*dA*dT*dT*d[5mC]*dA*dA*d[5mC]*eT*eG) [compound 435662]	19
435757 (antisense eT*eG*d[5mC]*d[5mC]*dT*dG*dA*dG*dT*dG*d[5mC]*d[5mC]*e[5mC]*e[5mC]) [compound 435757]	51
435491 (antisense e[5mC]*e[5mC]*d[5mC]*dT*dG*dG*dT*dG*dT*dA*d[5mC]*dA*e[5mC]*e[5mC]) [compound 435491]	61
435674 (antisense eA*eA*dA*d[5mC]*dA*dG*dT*dG*dG*dG*d[5mC]*d[5mC]*eG*e[5mC]) [compound 435674]	34
435637 (antisense eT*eG*dA*dA*dG*d[5mC]*d[5mC]*d[5mC]*dA*dA*dG*d[5mC]*eA*eG) [compound 435637]	11
435741 (antisense eA*eG*dG*dG*dT*dT*d[5mC]*dA*dT*dT*dT*d[5mC]*eA*eG) [compound 435741]	6
435636 (antisense eG*eA*dG*dA*d[5mC]*d[5mC]*dA*dT*dG*dA*dT*dG*eA*eA) [compound 435636]	13
435806 (antisense eT*eG*dA*d[5mC]*d[5mC]*d[5mC]*d[5mC]*dA*d[5mC]*dA*dG*dG*eG*eA) [compound 435806]	7
435835 (antisense eT*eT*dA*dT*dT*dT*dG*dG*dG*d[5mC]*dA*dT*eG*eG) [compound 435835]	7
435736 (antisense eA*eT*dG*d[5mC]*dA*dT*dG*dG*dT*dG*dA*dT*eG*e[5mC]) [compound 435736]	50
435838 (antisense eT*e[5mC]*d[5mC]*dA*dT*dG*dG*dA*d[5mC]*dA*d[5mC]*dT*eA*eA) [compound 435838]	29
435785 (antisense eA*eG*d[5mC]*dT*dT*d[5mC]*dT*d[5mC]*dA*d[5mC]*d[5mC]*dA*e[5mC]*eG) [compound 435785]	46
435478 (antisense eG*eA*dG*dG*d[5mC]*dA*d[5mC]*dA*d[5mC]*dT*dG*dG*eT*e[5mC]) [compound 435478]	43
435725 (antisense eG*e[5mC]*dA*dG*d[5mC]*d[5mC]*dT*dG*dA*dG*dG*d[5mC]*e[5mC]*eA) [compound 435725]	79
435498 (antisense eT*eG*dG*dG*dA*dG*dA*d[5mC]*d[5mC]*d[5mC]*dT*dG*eG*eT) [compound 435498]	37
435740 (antisense eT*e[5mC]*dA*dT*dT*dT*d[5mC]*dA*dG*dT*dG*dA*eT*eG) [compound 435740]	0
435784 (antisense e[5mC]*e[5mC]*dT*dA*dA*dG*dT*dG*dT*dG*d[5mC]*dT*eT*eT) [compound 435784]	17
435775 (antisense eT*e[5mC]*dT*dG*dG*dA*dA*dG*dG*dA*dA*d[5mC]*eA*eG) [compound 435775]	25
435650 (antisense e[5mC]*e[5mC]*dG*dG*d[5mC]*d[5mC]*d[5mC]*dT*d[5mC]*dG*dA*dA*eG*eG) [compound 435650]	6
435503 (antisense eT*eG*dT*dA*d[5mC]*dT*dG*dG*dG*dA*dG*dA*e[5mC]*e[5mC]) [compound 435503]	17
435660 (antisense e[5mC]*e[5mC]*dG*dT*d[5mC]*dT*dG*d[5mC]*d[5mC]*dA*dG*d[5mC]*eA*eG) [compound 435660]	58
435645 (antisense eG*eG*dA*dG*d[5mC]*dT*dG*dG*dT*d[5mC]*d[5mC]*dT*eT*eG) [compound 435645]	44
435763 (antisense eA*eG*dG*dA*dG*dA*dA*dA*dG*dG*dT*d[5mC]*eA*eG) [compound 435763]	2
435807 (antisense e[5mC]*eA*dG*dT*dA*d[5mC]*dT*dT*d[5mC]*d[5mC]*d[5mC]*dA*e[5mC]*eG) [compound 435807]	35
435667 (antisense eA*eA*dT*dT*d[5mC]*dG*dG*d[5mC]*d[5mC]*dT*dT*dG*eG*eG) [compound 435667]	16
435504 (antisense eA*eT*dG*dT*dA*d[5mC]*dT*dG*dG*dG*dA*dG*eA*e[5mC]) [compound 435504]	8
435728 (antisense eA*e[5mC]*dA*d[5mC]*dA*dT*dG*dG*dA*dG*dT*d[5mC]*eA*eG) [compound 435728]	16

Substance	% inhibition of human Factor 7 mRNA [%]
435658 (antisense eT*e[5mC]*dA*d[5mC]*dT*dG*d[5mC]*dA*dG*dT*dA*d[5mC]*eT*eG) [compound 435658]	60
435692 (antisense e[5mC]*eG*dG*dT*d[5mC]*d[5mC]*dA*dG*d[5mC]*dA*dG*d[5mC]*eT*eG) [compound 435692]	32
435675 (antisense eT*eG*dT*d[5mC]*dG*dA*dA*dA*d[5mC]*dA*dG*dT*eG*eG) [compound 435675]	24
435647 (antisense eA*eG*dA*dT*dA*dT*dA*dG*dG*dA*d[5mC]*dT*eG*eG) [compound 435647]	0
435851 (antisense eA*e[5mC]*dA*dG*dG*d[5mC]*d[5mC]*dA*dG*dG*d[5mC]*dT*eG*eG) [compound 435851]	0
435834 (antisense eT*eG*dA*d[5mC]*dA*dG*d[5mC]*dA*d[5mC]*dG*dA*dA*eG*e[5mC]) [compound 435834]	20
435797 (antisense eA*eA*dT*d[5mC]*dT*dT*dG*dG*d[5mC]*d[5mC]*d[5mC]*d[5mC]*eT*e[5mC]) [compound 435797]	16
435661 (antisense eG*eG*dA*d[5mC]*dA*d[5mC]*d[5mC]*d[5mC]*d[5mC]*dG*dT*d[5mC]*eT*eG) [compound 435661]	18
435642 (antisense eA*e[5mC]*dA*d[5mC]*dT*dG*dG*dT*d[5mC]*d[5mC]*d[5mC]*d[5mC]*eA*eT) [compound 435642]	60
435793 (antisense eT*eG*d[5mC]*dA*dG*dT*dA*dG*d[5mC]*dA*dG*dA*eT*eG) [compound 435793]	27
435808 (antisense e[5mC]*eT*d[5mC]*dT*dG*dG*dA*d[5mC]*dA*d[5mC]*d[5mC]*dG*eG*eG) [compound 435808]	66
435846 (antisense eT*eG*dG*dA*dG*dA*dG*dA*d[5mC]*d[5mC]*dA*dA*eT*eG) [compound 435846]	7
435843 (antisense eG*e[5mC]*dT*dG*dG*dA*dG*d[5mC]*dT*dG*dA*dG*e[5mC]*e[5mC]) [compound 435843]	0
435717 (antisense eT*eG*dA*dG*d[5mC]*dT*dT*dT*dT*dG*d[5mC]*dA*eG*e[5mC]) [compound 435717]	0
435670 (antisense e[5mC]*eA*dA*d[5mC]*dA*dG*dG*dA*d[5mC]*d[5mC]*dT*dG*e[5mC]*e[5mC]) [compound 435670]	47
435485 (antisense eT*e[5mC]*d[5mC]*dT*dG*dG*dG*dT*d[5mC]*dA*dT*d[5mC]*eA*eG) [compound 435485]	34
435794 (antisense eG*eA*dG*dG*dT*dA*d[5mC]*dA*d[5mC]*dA*dG*dG*e[5mC]*eT) [compound 435794]	26
435771 (antisense eG*eT*d[5mC]*dA*dT*dA*dA*dG*dG*d[5mC]*d[5mC]*dA*eT*eG) [compound 435771]	13
435496 (antisense eG*eG*dA*dG*dA*d[5mC]*d[5mC]*d[5mC]*dT*dG*dG*dT*eG*eT) [compound 435496]	47
435669 (antisense eG*eG*dA*d[5mC]*d[5mC]*dT*dG*d[5mC]*d[5mC]*dA*dT*dG*eG*eA) [compound 435669]	36
435783 (antisense eA*eA*dA*d[5mC]*d[5mC]*dG*dG*d[5mC]*dA*dT*dG*d[5mC]*eG*e[5mC]) [compound 435783]	49
435699 (antisense eG*e[5mC]*d[5mC]*d[5mC]*d[5mC]*dA*dG*d[5mC]*dT*dG*dA*d[5mC]*eG*eA) [compound 435699]	48
435663 (antisense e[5mC]*e[5mC]*dA*d[5mC]*dA*dT*dG*dG*dA*dT*dA*dT*eT*e[5mC]) [compound 435663]	50
435644 (antisense eT*eG*dG*dT*d[5mC]*d[5mC]*dT*dT*dG*d[5mC]*dA*dG*eG*eA) [compound 435644]	30
435764 (antisense eT*eG*dA*dG*dA*dG*d[5mC]*dT*dG*d[5mC]*dA*d[5mC]*e[5mC]*eT) [compound 435764]	8
435799 (antisense e[5mC]*eT*dG*dG*dT*d[5mC]*d[5mC]*d[5mC]*d[5mC]*dA*dT*d[5mC]*eT*eG) [compound 435799]	33
435721 (antisense eT*eA*dA*dG*dG*dA*dG*dG*d[5mC]*dT*d[5mC]*dA*eG*e[5mC]) [compound 435721]	12
